Measurements from patent US20120238767A1, “ANTIOXIDANT INFLAMMATION MODULATORS: NOVEL DERIVATIVES OF OLEANOLIC ACID” (priority 2008, published 2012).

Key:
[1] = system: IFNγ-induced NO production in RAW264.7 macrophages; assay: Suppression of IFNγ-induced NO production (Griess reagent); assay type: cell-based, mouse; conditions: RAW264.7, 20 ng/ml IFNγ for 24 hours, 2 hours pre-treatment
Protocol: (§1) FIGS. 1-11 and 22. Inhibition of NO Production. RAW264.7 macrophages were pre-treated with DMSO or drugs at various concentrations (nM) for 2 hours, then treated with 20 ng/ml IFNγ for 24 hours. NO concentration in media was determined using a Griess reagent system; cell viability was determined using WST-1 reagent. Nitric Oxide production and cell viability. RAW264.7 macrophages were pre-treated with DMSO or drugs for 2 hours, then treated with recombinant mouse IFNγ (Sigma) for 24 hours. NO concentration in media was determined using the Griess reagent system (Promega). Cell viability was determined using WST-1 reagent (Roche).

RAW264.7 macrophages = assay: Cell viability (WST-1 reagent); assay type: cell-based, mouse; conditions: RAW264.7, 20 ng/ml IFNγ
Protocol: as §1

IC50 [1] [nM]	IC50 ([1]; Mus musculus) [nM]	Compound	IC50 (RAW264.7 macrophages) [nM]	IC50 (RAW264.7 macrophages; Mus musculus) [nM]
> 200	–	COC(=O)[C@]12CCC(C)(C)C[C@H]1[C@H]1C(=O)C=C3[C@@]4(C)C=C(F)C(=O)C(C)(C)[C@@H]4CC[C@@]3(C)[C@]1(C)CC2 [Compound 402-05, (4aS,6aR,6bS,8aR,12aR,14aR,14b5)-methyl-11-fluoro-2,2,6a,6b,9,9,12a-heptamethyl-10,14-dioxo-1,2,3,4,4a,5,6,6a,6b,7,8,8a,9,10,12a,14,14a,14b-octadecahydropicene-4a-carboxylate]	> 200	–
–	> 200	COC(=O)[C@]12CCC(C)(C)C[C@H]1[C@H]1C(=O)C=C3[C@@]4(C)C=C(c5nnn[nH]5)C(=O)C(C)(C)[C@@H]4CC[C@@]3(C)[C@]1(C)CC2 [Compound 402-06, (4aS,6aR,6bS,8aR,12aS,14aR,14bS)-methyl-2,2,6a,6b,9,9,12a-heptamethyl-10,14-dioxo-11-(1H-tetrazol-5-yl)-1,2,3,4,4a,5,6,6a,6b,7,8,8a,9,10,12a,14,14a,14b-octadecahydropicene-4a-carboxylate]	–	> 200
–	> 200	COC(=O)[C@]12CCC(C)(C)C[C@H]1[C@H]1C(=O)C=C3[C@@]4(C)C=C(C(=O)NO)C(=O)C(C)(C)[C@@H]4CC[C@@]3(C)[C@]1(C)CC2 [Compound 402-07, (4aS,6aR,6bS,8aR,12aS,14aR,14b5)-methyl-11-(hydroxycarbamoyl)-2,2,6a,6b,9,9,12a-heptamethyl-10,14-dioxo-1,2,3,4,4a,5,6,6a,6b,7,8,8a,9,10,12a,14,14a,14b-octadecahydropicene-4a-carboxylate]	–	> 200
–	62	COC(=O)[C@]12CCC(C)(C)C[C@H]1[C@H]1C(=O)C=C3[C@@]4(C)C=C(C(=O)NS(C)(=O)=O)C(=O)C(C)(C)[C@@H]4CC[C@@]3(C)[C@]1(C)CC2 [Compound 402-08, (4aS,6aR,6bS,8aR,12aS,14aR,14bS)-methyl-2,2,6a,6b,9,9,12a-heptamethyl-11-(methylsulfonylcarbamoyl)-10,14-dioxo-1,2,3,4,4a,5,6,6a,6b,7,8,8a,9,10,12a,14,14a,14b-octadecahydropicene-4a-carboxylate]	–	> 200
–	4.2	CC1(C)CC[C@]2(C(=O)NO)CC[C@]3(C)[C@H](C(=O)C=C4[C@@]5(C)C=C(C#N)C(=O)C(C)(C)[C@@H]5CC[C@]43C)[C@@H]2C1 [Compound 402-09, (4aS,6aR,6bS,8aR,12aS,14aR,14bS)-11-cyano-N-hydroxy-2,2,6a,6b,9,9,12a-heptamethyl-10,14-dioxo-1,2,3,4,4a,5,6,6a,6b,7,8,8a,9,10,12a,14,14a,14b-octadecahydropicene-4a-carboxamide]	–	> 200
–	2.3	CONC(=O)[C@]12CCC(C)(C)C[C@H]1[C@H]1C(=O)C=C3[C@@]4(C)C=C(C#N)C(=O)C(C)(C)[C@@H]4CC[C@@]3(C)[C@]1(C)CC2 [Compound 402-10, (4aS,6aR,6bS,8aR,12aS,14aR,14bS)-11-cyano-N-methoxy-2,2,6a,6b,9,9,12a-heptamethyl-10,14-dioxo-1,2,3,4,4a,5,6,6a,6b,7,8,8a,9,10,12a,14,14a,14b-octadecahydropicene-4a-carboxamide]	–	> 200
–	2.5	CC1(C)CC[C@]2(C(=O)N=[N+]=[N-])CC[C@]3(C)[C@H](C(=O)C=C4[C@@]5(C)C=C(C#N)C(=O)C(C)(C)[C@@H]5CC[C@]43C)[C@@H]2C1 [Compound 402-11, (4aS,6aR,6bS,8aR,12aS,14aR,14bS)-11-cyano-2,2,6a,6b,9,9,12a-heptamethyl-10,14-dioxo-1,2,3,4,4a,5,6,6a,6b,7,8,8a,9,10,12a,14,14a,14b-octadecahydropicene-4a-carbonyl azide]	–	150
–	> 200	COC(=O)[C@]12CCC(C)(C)C[C@H]1[C@H]1C(=O)C=C3[C@@]4(C)C(C)=C(C#N)C(=O)C(C)(C)[C@@H]4CC[C@@]3(C)[C@]1(C)CC2 [Compound 402-22, (4 aS,6aR,6bS,8aR,12 aR,14 aR,14bS)-methyl-11-cyano-2,2,6a,6b,9,9,12,12a-octamethyl-10,14-dioxo-1,2,3,4,4a,5,6,6a,6b,7,8,8a,9,10,12a,14,14a,14b-octadecahydropicene-4a-carboxylate]	–	> 200
–	17	CC1(C)CC[C@]2(C(=O)NCCO)CC[C@]3(C)[C@H](C(=O)C=C4[C@@]5(C)C=C(C#N)C(=O)C(C)(C)[C@@H]5CC[C@]43C)[C@@H]2C1 [Compound 402-40, (4aS,6aR,6bS,8aR,12aS,14aR,14bS)-11-cyano-N-(2-hydroxyethyl)-2,2,6a,6b,9,9,12a-heptamethyl-10,14-dioxo-1,2,3,4,4a,5,6,6a,6b,7,8,8a,9,10,12a,14,14a,14b-octadecahydropicene-4a-carboxamide]	–	75
–	~3	CC1(C)CC[C@]2(C(=O)F)CC[C@]3(C)[C@H](C(=O)C=C4[C@@]5(C)C=C(C#N)C(=O)C(C)(C)[C@@H]5CC[C@]43C)[C@@H]2C1 [Compound 402-55, (4aS,6aR,6bS,8aR,12aS,14aR,14bS)-11-cyano-2,2,6a,6b,9,9,12a-heptamethyl-10,14-dioxo-1,2,3,4,4a,5,6,6a,6b,7,8,8a,9,10,12a,14,14a,14b-octadecahydropicene-4a-carbonyl fluoride]	–	100
–	~3.2	COC(=O)[C@]12CCC(C)(C)C[C@H]1[C@H]1C(=O)C=C3[C@@]4(C)C=C(C#N)C(=O)[C@](C)(CO)[C@@H]4CC[C@@]3(C)[C@]1(C)CC2 [Compound 63301, (4aS,6aR,6bS,8aR,9S,12aS,14aR,14b5)-methyl 11-cyano-9-(hydroxymethyl)-2,2,6a,6b,9,12a-hexamethyl-10,14-dioxo-1,2,3,4,4a,5,6,6a,6b,7,8,8a,9,10,12a,14,14a,14b-octadecahydropicene-4a-carboxylate]	–	~120
–	~18	COCOC[C@@]1(C)C(=O)C(C#N)=C[C@]2(C)C3=CC(=O)[C@@H]4[C@@H]5CC(C)(C)CC[C@]5(C(=O)OC)CC[C@@]4(C)[C@]3(C)CC[C@@H]12 [Compound 63302, (4aS,6aR,6bS,8aR,9S,12aS,14aR,14bS)-methyl 11-cyano-9-((methoxymethoxy)methyl)-2,2,6a,6b,9,12a-hexamethyl-10,14-dioxo-1,2,3,4,4a,5,6,6a,6b,7,8,8a,9,10,12a,14,14a,14b-octadecahydropicene-4a-carboxylate]	–	~100
–	~60	COC(=O)[C@]12CCC(C)(C)C[C@H]1[C@H]1C(=O)C=C3[C@@]4(C)C=C(C#N)C(=O)C(C)(C)[C@@H]4[C@H](O)C[C@@]3(C)[C@]1(C)CC2 [Compound 63307, (4aS,6aR,6bS,8R,8aR,12aS,14aR,14bS)-methyl 11-cyano-8-hydroxy-2,2,6a,6b,9,9,12a-heptamethyl-10,14-dioxo-1,2,3,4,4a,5,6,6a,6b,7,8,8a,9,10,12a,14,14a,14b-octadecahydropicene-4a-carboxylate]	–	> 200
–	~12	COC(=O)[C@]12CCC(C)(C)C[C@H]1[C@H]1C(=O)C=C3[C@@]4(C)C=C(C#N)C(=O)C(C)(C)[C@@H]4C(=O)C[C@@]3(C)[C@]1(C)CC2 [Compound 63309, (4aS,6aR,6bS,8aR,12aS,14aR,14bS)-methyl 11-cyano-2,2,6a,6b,9,9,12a-heptamethyl-8,10,14-trioxo-1,2,3,4,4a,5,6,6a,6b,7,8,8a,9,10,12a,14,14a,14b-octadecahydropicene-4a-carboxylate]	–	> 200
–	~80	COC(=O)[C@]12CCC(C)(C)C[C@H]1[C@H]1C(=O)C=C3[C@@]4(C)[C@@H](O)[C@](O)(C#N)C(=O)C(C)(C)[C@@H]4CC[C@@]3(C)[C@]1(C)CC2 [Compound 63316, (4aS,6aR,6bS,8aR,11R,12R,12aS,14aR,14bS)-methyl 11-cyano-11,12-dihydroxy-2,2,6a,6b,9,9,12a-heptamethyl-10,14-dioxo-1,2,3,4,4a,5,6,6a,6b,7,8,8a,9,10,11,12,12a,14,14a,14b-icosahydropicene-4a-carboxylate]	–	> 200
–	~12	COC(=O)[C@]12CCC(C)(C)C[C@H]1[C@H]1C(=O)C=C3[C@@]4(C)C=C(C(F)(F)F)C(=O)C(C)(C)[C@@H]4CC[C@@]3(C)[C@]1(C)CC2 [Compound 63320, (4aS,6aR,6bS,8aR,12aS,14aR,14bS)-methyl 2,2,6a,6b,9,9,12a-heptamethyl-10,14-dioxo-11-(trifluoromethyl)-1,2,3,4,4a,5,6,6a,6b,7,8,8a,9,10,12a,14,14a,14b-octadecahydropicene-4a-carboxylate]	–	–

Compound	IC50 [1] [nM]	IC50 ([1]; Mus musculus) [nM]	IC50 (RAW264.7 macrophages) [nM]	IC50 (RAW264.7 macrophages; Mus musculus) [nM]
COC(=O)[C@]12CCC(C)(C)C[C@H]1[C@H]1C(=O)C=C3[C@@]4(C)CC(C#N)=C(OC(C)=O)C(C)(C)[C@@H]4CC[C@@]3(C)[C@]1(C)CC2 [Compound 402-47, (4aS,6aR,6bS,8aR,12aS,14aR,14bS)-methyl-10-acetoxy-11-cyano-2,2,6a,6b,9,9,12a-heptamethyl-14-oxo-1,2,3,4,4a,5,6,6a,6b,7,8,8a,9,12,12a,14,14a,14b-octadecahydropicene-4a-carboxylate]	–	> 200	–	> 200
